Measurements: paper PMC12040169 (PLOS Biology, 2025)

Assay: in vitro
Details: human, hela cells, % viability

Compound	viability at 28.5 h, 10 µM
CC(C)CC(=O)NC(N=C(S)Nc1sc2c(c1C#N)CCCC2)C(Cl)(Cl)Cl (centres unmarked) [CBK261049]	85.2%
CCCN(Cc1nccn1C)C(=O)Cn1nc(C)c2ccccc2c1=O [CBK307441]	95.4%
O=C(NC(c1ccc(Cl)cc1)c1cnccn1)C1CCN(Cc2ccc(Oc3ccccc3)cc2)CC1 (centres unmarked) [CBK148023]	108%
Fc1ccc(C(c2nnnn2C2CCCCC2)N2CCCCC2)cc1 (centres unmarked) [CBK141670]	94.9%
CC(c1ccc(F)c(F)c1)N(C)C(=O)Cn1[nH]c(=O)ccc1=O (centres unmarked) [CBK305810]	81.2%
Nc1nonc1C(=O)NCCNS(=O)(=O)c1ccc(F)cc1 [CBK265980]	88.1%
CNC(=O)CSc1nc2ccccc2nc1NC(C)C [CBK107171]	99.7%
Clc1cc2nc(Sc3ccccn3)c(N3CCCC3)nc2cc1Cl [CBK093754]	100%
O=C(C1CCCCC1)N1CC(n2nc(-c3cccs3)ccc2=O)C1 [CBK283346]	99.2%
Cc1nnc(Sc2ccc([N+](=O)[O-])cc2Cl)n1Cc1ccccc1 [CBK269694]	102%
O=C(N[C@@H](Cn1cc(Cl)c(=O)[nH]c1=O)C(=O)O)C1CCCC1 [CBK289658]	113%
CCCCOC(=O)c1ccc(NC(=O)NCCc2cccs2)cc1 [CBK043381]	86%
Cc1cccc(Nc2nc3nonc3[nH]/c2=N\N=C/c2cn(Cc3ccc(Cl)cc3Cl)c3ccccc23)c1C [CBK262378]	93.3%
COc1ccc(C(N2CCOCC2)N2CCOCC2)cc1 [CBK261002]	102%
COc1ccccc1C(=O)N1CCC(Cc2ccc(-c3ccccc3)cc2)(C(N)=O)CC1 [CBK285774]	100%
O=C(O)c1c(-c2ccccc2)oc2ccc(NS(=O)(=O)c3ccc(F)cc3)cc12 [CBK299817]	89.9%
CCn1c2ccccc2c2cc(CN3CCN(Cc4cccc(F)c4)CC3)ccc21 [CBK263143]	90.5%
O=C(OCCc1cccnc1)N1CCSCC1 [CBK200160]	103%

Compound	viability at 28.5 h, 10 µM
COCCCOc1cc(N2CCCC2)ncn1 [CBK115896]	102%
COc1ccc(NC(=O)Cc2csc(NC(=O)c3ccco3)n2)c(OC)c1 [CBK287649]	91.7%
CC(C)(C)OC(=O)NC1CCC(NCc2ccccc2Br)CC1 (centres unmarked) [CBK056684]	91.5%
Cc1nn(Cc2cccc3ccccc23)c(C)c1NC(=O)c1cccnc1 [CBK269946]	90.6%
Cc1nnc(SCc2nnc(-c3ccccc3)o2)n1Cc1ccccc1 [CBK269743]	92.2%
Cc1ccc(OCc2nnc(SCC(=O)c3cccc([N+](=O)[O-])c3)n2C)cc1 [CBK268580]	86.9%
O=C(c1cnc2ccccc2c1)N1CCc2ccccc21 [CBK200284]	77.7%
CCCC/C=C/c1cncc(NCc2ccc(OC)cc2)n1 [CBK037933]	96.7%
COc1ccc(Cc2n[nH]c(=O)n2-c2ccccc2)cc1 [CBK000112]	107%
O=C(O)CN1CCC(Oc2nccnc2OCc2ccc(Cl)c(Cl)c2)CC1 [CBK144443]	97%
Cc1cccc(N2C(=O)c3ccc(C(=O)c4ccc5c(c4)C(=O)N(c4cccc(C)n4)C5=O)cc3C2=O)n1 [CBK263069]	87.8%
CC1CCCCN1Cc1ccc(-c2nnn(CC(=O)NCc3ccco3)n2)cc1 (centres unmarked) [CBK122002]	96%
CC(=O)Nc1cccc(NC(=O)c2ccc(CN3CCCCC3)cc2)c1 [CBK295596]	103%
Cc1ccnc(SCC(N)=O)n1 [CBK028874]	96.1%
COc1ccccc1N1CCN(C2CCN(Cc3ccc([N+](=O)[O-])cc3)CC2)CC1 [CBK264734G]	98.8%
CCOC(=O)Nc1ccc2c(c1)N(C(=O)CN(C)C)c1ccccc1S2 [CBK261290C]	106%
CC1=NN(c2ccccc2)C(=O)/C1=C\c1cn(CCC(=O)O)nc1-c1cc2ccccc2o1 [CBK265252]	88.1%
